# Measurements reported in patent US20240174624A1, “CHIRAL N-(1,3,4-OXADIAZOLE-2-YL)PHENYL CARBOXYLIC ACID AMIDES AND THEIR USE AS HERBICIDES” (Bayer Aktiengesellschaft, priority 2021, published 2024).
# What was measured:
# GLXMA = assay: Post-emergence damage to crop plants; type: in vivo, Glycine max; details: 5 g a.i./ha, comparative experiment
# Protocol: (§1) Seeds of monocotyledonous and dicotyledonous weed and crop plants are laid out in sandy loam soil in wood-fibre pots, covered with soil and cultivated in a greenhouse under good growth conditions. 2 to 3 weeks after sowing, the test plants are treated at the one-leaf stage. The compounds of the invention, formulated in the form of wettable powders (WP) or as emulsion concentrates (EC), are then sprayed onto the green parts of the plants in the form of an aqueous suspension or emulsion at a water application rate equating to 600 to 800 l/ha, with addition of 0.2% wetting agent. After the test plants have been left to stand in the greenhouse under optimal growth conditions for about 3 weeks, the action of the preparations is assessed visually in comparison to untreated controls (herbicidal action in percent (%): 100% activity=the plants have died, 0% activity=like control plants). […] The tables below illustrate, in an illustrative manner, the post-emergence herbicidal action of the compounds of the invention, the herbicidal activity being stated in percent. In the experiments that follow, the herbicidal action of the compounds of the invention and that of the corresponding known racemic compounds closest from WO2012126932 and WO2018202535 were compared under the above-specified conditions by the pre-emergence and post-emergence method. […]
# BRSNW = assay: Pre-emergence damage to crop plants; type: in vivo, Brassica napus; details: 20 g a.i./ha, comparative experiment
# Excerpt: (§2) Seeds of monocotyledonous and dicotyledonous weed plants and crop plants are laid out in sandy loam soil in wood-fibre pots and covered with soil. The compounds of the invention, formulated in the form of wettable powders (WP) or as emulsion concentrates (EC), are then applied to the surface of the covering soil in the form of an aqueous suspension or emulsion at a water application rate equivalent to 600 to 800 l/ha, with addition of 0.2% wetting agent. After the treatment, the pots are placed in a greenhouse and kept under good growth conditions for the trial plants. The damage to the test plants is scored visually after a test period of 3 weeks by comparison with untreated controls (herbicidal activity in percent (%): 100% activity=the plants have died, 0% activity=like control plants). […] The tables below illustrate, in an illustrative manner, the post-emergence herbicidal action of the compounds of the invention, the herbicidal activity being stated in percent. In the experiments that follow, the herbicidal action of the compounds of the invention and that of the corresponding known racemic compounds closest from WO2012126932 and WO2018202535 were compared under the above-specified conditions by the pre-emergence and post-emergence method. The example numbers given in the tables relate to the compounds disclosed in the respective documents.
# TRZAS = assay: Post-emergence damage to crop plants; type: in vivo, Triticum aestiva; details: 5 g a.i./ha, comparative experiment
# Protocol: (§3) Seeds of monocotyledonous and dicotyledonous weed and crop plants are laid out in sandy loam soil in wood-fibre pots, covered with soil and cultivated in a greenhouse under good growth conditions. 2 to 3 weeks after sowing, the test plants are treated at the one-leaf stage. The compounds of the invention, formulated in the form of wettable powders (WP) or as emulsion concentrates (EC), are then sprayed onto the green parts of the plants in the form of an aqueous suspension or emulsion at a water application rate equating to 600 to 800 l/ha, with addition of 0.2% wetting agent. After the test plants have been left to stand in the greenhouse under optimal growth conditions for about 3 weeks, the action of the preparations is assessed visually in comparison to untreated controls (herbicidal action in percent (%): 100% activity=the plants have died, 0% activity=like control plants). […] The tables below illustrate, in an illustrative manner, the post-emergence herbicidal action of the compounds of the invention, the herbicidal activity being stated in percent. In the experiments that follow, the herbicidal action of the compounds of the invention and that of the corresponding known racemic compounds closest from WO2012126932 and WO2018202535 were compared under the above-specified conditions by the pre-emergence and post-emergence method. The example numbers given in the tables relate to the compounds disclosed in the respective documents.
# ZEAMX = assay: Pre-emergence damage to crop plants; type: in vivo, Zea mays; details: comparative experiment
# Excerpt: as §2
# SETVI [1] = assay: Post-emergence herbicidal action; type: in vivo, Setaria viridis; details: for Herbicidal action against SETVI: 5 g a.i./ha, comparative experiment; for Post-emergence action against SETVI: assessed after about 3 weeks
# Protocol: as §3
# VIOTR [2] = assay: Post-emergence herbicidal action; type: in vivo, Viola tricolor; details: for Herbicidal action against VIOTR: comparative experiment; for Post-emergence action against VIOTR: assessed after about 3 weeks
# Protocol: as §3
# ECHCG [3] = assay: Post-emergence herbicidal action; type: in vivo, Echinochloa crus-galli; details: for Post-emergence action against ECHCG: assessed after about 3 weeks
# Protocol: as §3
# AVEFA = assay: Pre-emergence herbicidal action; type: in vivo, Avena fatua
# Excerpt: as §2
# POLCO = assay: Pre-emergence herbicidal action; type: in vivo, Polygonum convolvulus; details: 320 g a.i./ha, comparative experiment
# Excerpt: as §2
# ECHCG [4] = assay: Pre-emergence herbicidal action; type: in vivo, Echinochloa crus-galli; details: scored after 3 weeks
# Excerpt: as §2, with “percent.” for “percent. In the experiments that follow, the herbicidal action of the compounds of the invention and that of the corresponding known racemic compounds closest from WO2012126932 and WO2018202535 were compared under the above-specified conditions by the pre-emergence and post-emergence method. The example numbers given in the tables relate to the compounds disclosed in the respective documents.”
# STEME [5] = assay: Post-emergence herbicidal action; type: in vivo, Stellaria media; details: 5 g a.i./ha, comparative experiment
# Protocol: as §3
# CYPES [6] = assay: Post-emergence herbicidal action; type: in vivo, Cyperus esculentus; details: 20 g a.i./ha, comparative experiment
# Protocol: as §1
# MATIN [7] = assay: Post-emergence herbicidal action; type: in vivo, Matricaria inodora; details: assessed after about 3 weeks
# Protocol: (§4) Seeds of monocotyledonous and dicotyledonous weed and crop plants are laid out in sandy loam soil in wood-fibre pots, covered with soil and cultivated in a greenhouse under good growth conditions. 2 to 3 weeks after sowing, the test plants are treated at the one-leaf stage. The compounds of the invention, formulated in the form of wettable powders (WP) or as emulsion concentrates (EC), are then sprayed onto the green parts of the plants in the form of an aqueous suspension or emulsion at a water application rate equating to 600 to 800 l/ha, with addition of 0.2% wetting agent. After the test plants have been left to stand in the greenhouse under optimal growth conditions for about 3 weeks, the action of the preparations is assessed visually in comparison to untreated controls (herbicidal action in percent (%): 100% activity=the plants have died, 0% activity=like control plants). […] The tables below illustrate, in an illustrative manner, the post-emergence herbicidal action of the compounds of the invention, the herbicidal activity being stated in percent.
# SETVI [8] = assay: Pre-emergence herbicidal action; type: in vivo, Setaria viridis; details: for Pre-emergence action against SETVI: scored after 3 weeks
# Excerpt: as §2
# VERPE [9] = assay: Pre-emergence herbicidal action; type: in vivo, Veronica persica; details: for Herbicidal action against VERPE: comparative experiment; for Pre-emergence action against VERPE: scored after 3 weeks
# Excerpt: as §2
# AMARE [10] = assay: Post-emergence herbicidal action; type: in vivo, Amaranthus retroflexus; details: assessed after about 3 weeks
# Protocol: as §4
# PHBPU [11] = assay: Pre-emergence herbicidal action; type: in vivo, Pharbitis purpurea; details: 80 g/ha, scored after 3 weeks
# Excerpt: as §2, with “percent.” for “percent. In the experiments that follow, the herbicidal action of the compounds of the invention and that of the corresponding known racemic compounds closest from WO2012126932 and WO2018202535 were compared under the above-specified conditions by the pre-emergence and post-emergence method. The example numbers given in the tables relate to the compounds disclosed in the respective documents.”
# VIOTR [12] = assay: Pre-emergence herbicidal action; type: in vivo, Viola tricolor; details: 80 g/ha, scored after 3 weeks
# Excerpt: as §2, with “percent.” for “percent. In the experiments that follow, the herbicidal action of the compounds of the invention and that of the corresponding known racemic compounds closest from WO2012126932 and WO2018202535 were compared under the above-specified conditions by the pre-emergence and post-emergence method. The example numbers given in the tables relate to the compounds disclosed in the respective documents.”
# PHBPU [13] = assay: Post-emergence herbicidal action; type: in vivo, Pharbitis purpurea; details: 20 g/ha, assessed after about 3 weeks
# Protocol: as §4
# MATIN [14] = assay: Pre-emergence herbicidal action; type: in vivo, Matricaria inodora; details: for Pre-emergence action against MATIN: scored after 3 weeks
# Excerpt: as §2
# ALOMY = assay: Pre-emergence herbicidal action; type: in vivo, Alopecurus myosuroides
# Excerpt: as §2
# CYPES [15] = assay: Pre-emergence herbicidal action; type: in vivo, Cyperus esculentus; details: 20 g a.i./ha, comparative experiment
# Excerpt: as §2
# AMARE [16] = assay: Pre-emergence herbicidal action; type: in vivo, Amaranthus retroflexus; details: scored after 3 weeks
# Excerpt: as §2, with “percent.” for “percent. In the experiments that follow, the herbicidal action of the compounds of the invention and that of the corresponding known racemic compounds closest from WO2012126932 and WO2018202535 were compared under the above-specified conditions by the pre-emergence and post-emergence method. The example numbers given in the tables relate to the compounds disclosed in the respective documents.”
# STEME [17] = assay: Pre-emergence herbicidal action; type: in vivo, Stellaria media; details: comparative experiment
# Excerpt: as §2
# VERPE [18] = assay: Post-emergence herbicidal action; type: in vivo, Veronica persica
# Protocol: as §3
# [19] = 20 g a.i./ha, comparative experiment
smiles,measurement,setting,value
"Cc1nnc(NC(=O)c2ccc(C(F)F)c([S+](C)[O-])c2Cl)o1 (racemic) [7-48 from WO2018202535, 2-chloro-N-(5-methyl-1,3,4-oxadiazol-2-yl)-3-[(rac)-methylsulfinyl]-4-(difluoromethyl)benzamide, reference compound]",Damage to GLXMA,GLXMA,60%
same,Damage to BRSNW,BRSNW,80%
same,Damage to TRZAS,TRZAS,40%
same,Damage to ZEAMX,ZEAMX; 80 g a.i./ha,50%
same,Herbicidal action against SETVI,SETVI [1],80%
same,Herbicidal action against VIOTR,VIOTR [2]; 5 g a.i./ha,60%
same,Herbicidal action against VIOTR,VIOTR [2]; 20 g a.i./ha,80%
same,Herbicidal action against ECHCG,ECHCG [3]; [19],80%
"Cc1nnc(NC(=O)c2ccc(C(F)(F)F)c([S+](C)[O-])c2Cl)o1 (stereo in doubt) [Example I-5, 2-chloro-N-(5-methyl-1,3,4-oxadiazol-2-yl)-3-[(S)-methylsulfinyl]-4-(trifluoromethyl)benzamide]",Herbicidal action against AVEFA,AVEFA; [19],90%
same,Pre-emergence action against AVEFA,"AVEFA; 80 g/ha, scored after 3 weeks",80%
same,Herbicidal action against POLCO,POLCO,80%
same,Pre-emergence action against ECHCG,ECHCG [4]; 20 g/ha,100%
same,Pre-emergence action against ECHCG,ECHCG [4]; 80 g/ha,100%
same,Herbicidal action against STEME,STEME [5],80%
same,Herbicidal action against CYPES,CYPES [6],80%
same,Post-emergence action against MATIN,MATIN [7]; 5 g/ha,80%
same,Post-emergence action against MATIN,MATIN [7]; 20 g/ha,90%
same,Pre-emergence action against SETVI,SETVI [8]; 5 g/ha,80%
same,Herbicidal action against SETVI,SETVI [8]; [19],100%
same,Pre-emergence action against SETVI,SETVI [8]; 20 g/ha,100%
same,Pre-emergence action against SETVI,SETVI [8]; 80 g/ha,100%
same,Herbicidal action against VERPE,VERPE [9]; 20 g a.i./ha,30%
same,Pre-emergence action against VERPE,VERPE [9]; 20 g/ha,80%
same,Herbicidal action against VERPE,VERPE [9]; 80 g a.i./ha,100%
same,Pre-emergence action against VERPE,VERPE [9]; 80 g/ha,100%
same,Post-emergence action against AMARE,AMARE [10]; 5 g/ha,100%
same,Post-emergence action against AMARE,AMARE [10]; 20 g/ha,100%
same,Herbicidal action against ZEAMX,ZEAMX; 320 g a.i./ha,40%
same,Herbicidal action against SETVI,SETVI [1],100%
same,Post-emergence action against SETVI,SETVI [1]; 5 g/ha,80%
same,Post-emergence action against SETVI,SETVI [1]; 20 g/ha,100%
same,Pre-emergence action against PHBPU,PHBPU [11],100%
same,Pre-emergence action against VIOTR,VIOTR [12],100%
same,Post-emergence action against PHBPU,PHBPU [13],90%
same,Herbicidal action against MATIN,MATIN [14]; [19],90%
same,Pre-emergence action against MATIN,MATIN [14]; 20 g/ha,80%
same,Pre-emergence action against MATIN,MATIN [14]; 80 g/ha,100%
same,Herbicidal action against ALOMY,ALOMY; [19],60%
same,Pre-emergence action against ALOMY,"ALOMY; 80 g/ha, scored after 3 weeks",80%
same,Post-emergence action against VIOTR,VIOTR [2]; 5 g/ha,100%
same,Post-emergence action against VIOTR,VIOTR [2]; 20 g/ha,100%
same,Herbicidal action against CYPES,CYPES [15],90%
same,Post-emergence action against ECHCG,ECHCG [3]; 5 g/ha,90%
same,Post-emergence action against ECHCG,ECHCG [3]; 20 g/ha,100%
same,Pre-emergence action against AMARE,AMARE [16]; 20 g/ha,90%
same,Pre-emergence action against AMARE,AMARE [16]; 80 g/ha,100%
same,Herbicidal action against STEME,STEME [17]; 20 g a.i./ha,100%
same,Herbicidal action against STEME,STEME [17]; 80 g a.i./ha,100%
same,Herbicidal action against STEME,STEME [17]; 320 g a.i./ha,100%
same,Herbicidal action against VERPE,"VERPE [18]; 5 g a.i./ha, comparative experiment",40%
same,Post-emergence action against VERPE,"VERPE [18]; 20 g/ha, assessed after about 3 weeks",90%
